“Also recorded” adds a separate entry of the source. Where a name gives a salt, the structure may show the parent alone. Read-outs that look alike come from different tables or passages of the source.
Columns and labels:
[1] = tested on: NCC (lysis of IM-9 target cells); assay: NCC cytotoxicity (51Cr release) after treatment with protein kinase inhibitors; format: cell-based, channel catfish (Ictalurus punctatus); details: for Percentage specific release: media control 25.9%; for activation at 30 µM / activation at 60 µM: read-out: Percentage increase (vs media control)
Experimental: To prepare NCC, fish were lightly anesthetized with ethyl m-aminobenzoate (Sigma Chemical Co.) in water and sacrificed.
IM-9 target cells were used in cytotoxicity assays. […] Cells were grown in stationary suspension cultures and were maintained at approximately 1×10^6 cells/ml. […]

[2] = tested on: protein kinase C (PKC); details: cited from earlier work
[3] = tested on: cyclic nucleotide dependent kinases; details: cited from earlier work
[4] = tested on: NCC (lysis of IM-9 target cells); assay: Costimulation assay: NCC cytotoxicity (51Cr release) with A23187 or mab 5C6; format: cell-based, channel catfish (Ictalurus punctatus); details: for activity at 60 µM: Ictalurus punctatus, IM-9, 2 h, mabs 1:50 dilution, H-7, HA1004 60 μM, genistein 0.5 μg/ml
Experimental: Incubation was two hours and cells were either washed or not washed before addition to ^51 Cr-labeled IM-9 target cells (4- to 6-hour cytotoxicity assays).
To further investigate this inhibitory effect, a costimulus experiment was done using a calcium ionophore, e.g., A23187, combined with the various inhibitors and activators of NCC activity. Pretreatment of NCC with A23187 produced an almost identical increase in cytotoxicity regardless of the identity of the first treatment.
In a second costimulus experiment mab 5C6 was used (instead of A23187) to activate cytotoxicity (Table 6).

[5] = tested on: NCC membrane proteins (tyrosine phosphorylation); assay: Tyrosine phosphorylation of NCC membrane proteins following mab 5C6 activation (Western blot); format: cell-based, channel catfish (Ictalurus punctatus); details: NCC pretreated two hours with inhibitor; 100 μg/ml genistein or 30 μM HA1004
Experimental: FIG. 1. Tyrosine phosphorylation of NCC membrane proteins following activation by mab 5C6. NCC were resuspended at 500×10^6 /ml and 200 μl aliquots were incubated at 37° C. with either 125 μl ammonium sulfate precipitate mab 5C6 (left panel) or an isotype control (right panel). At the indicated timed intervals, the reactions were terminated by addition of 325 μl of 2×lysis buffer. Lysates were immunoprecipitated with mab 4G10, electrophoresed on 11% SDS-PAGE, blotted onto nitrocellulose, and probed with mab 4G10. Molecular weight markers are indicated by the arrows.
FIG. 2. Tyrosine phosphorylation of Percoll-enriched NCC. Fish NCC were centrifuged for 15 minutes at 500 g on a 45.5% Percoll cushion. The cells at the interphase were harvested, washed, and treated with mab 5C6 for 0 and 20 sec before addition of 2×lysis buffer. Lysates were electrophoresed, blotted on nitrocellulose, and probed with mab 4G10.
FIG. 3. Effects of genistein on tyrosine phosphorylation in fish NCC. Fish NCC were incubated with media, genistein (100 μg/ml), or HA1004 (30 μM) for two hours prior to activation for zero time with mab 5C6 (left lane) and 40 sec with either mab 5C6 (middle lane) or an irrelevant IgM isotype control (right lane). Reactions were stopped by addition of lysis buffer and lysates were processed as explained in the legends to FIGS. 1 and 2. […]

[6] = tested on: Na^+ /K^+ ATPase; details: cited from earlier work

CNCCNS(=O)(=O)c1cccc2cnccc12.Cl.Cl [H-8, N-(2-(methylamino)ethyl)-5-isoquinolinesulfonamide di-HCl]
inhibition of NCC cytotoxicity [1]: time and dose dependent inhibition of NCC cytotoxicity
inhibition at 30 µM ([1]; Ictalurus punctatus, 1.5 h, read-out: Percentage inhibition (NCC activity), 30 μM, 90 minutes, washed, E:T 80.1): 0%
inhibition at 60 µM ([1]; Ictalurus punctatus, 1.5 h, read-out: Percentage inhibition (NCC activity), 60 μM, 90 minutes, washed, E:T 80.1): 13.8%
inhibition at 150 µM ([1]; Ictalurus punctatus, 1.5 h, read-out: Percentage inhibition (NCC activity), 150 μM, 90 minutes, washed, E:T 80.1): 36.9%
inhibition at 300 µM ([1]; Ictalurus punctatus, 1.5 h, read-out: Percentage inhibition (NCC activity), 300 μM, 90 minutes, washed, E:T 80.1): 46.5%
inhibition of NCC activity, comparison with H-7 ([1]; approximately 150 μM H-8, di-HCl): levels of inhibition comparable to that obtained with an approximately 30 μM concentration of H-7
effect on protein kinase C ([2]; di-HCl): almost no effect on PKC activity; also recorded: limited effect on PKC
inhibition of cyclic nucleotide dependent kinases [3]: more inhibitory of cyclic nucleotide dependent kinases

N=C(N)NCCNS(=O)(=O)c1cccc2cnccc12 [HA1004, N-(2-guanidoethyl)-5-isoquinolinesulfonamide di-HCl]
effect of removal (washing) of inhibitor on cytotoxicity [1]: did not reduce the augmentation of cytotoxicity
Percentage specific release ([1]; 30 μM, 60 min): 38.7%
Percentage specific release ([1]; 30 μM, 120 min): 39.0%
Percentage specific release ([1]; 30 μM, 180 min/wash): 36.0%
Percentage specific release ([1]; 30 μM, 180 min): 35.9%
Percentage specific release ([1]; 60 μM, 60 min): 38.5%
Percentage specific release ([1]; 60 μM, 120 min): 36.9%
Percentage specific release ([1]; 60 μM, 180 min/wash): 34.2%
Percentage specific release ([1]; 60 μM, 180 min): 36.5%
activation at 30 µM ([1]; Ictalurus punctatus, 1 h, 30 μM, 60 min): 49.2%
activation at 60 µM ([1]; Ictalurus punctatus, 1 h, 60 μM, 60 min): 48.3%
activation at 30 µM ([1]; Ictalurus punctatus, 2 h, 30 μM, 120 min): 50.2%
activation at 60 µM ([1]; Ictalurus punctatus, 2 h, 60 μM, 120 min): 42.1%
activation at 30 µM ([1]; Ictalurus punctatus, 3 h, 30 μM, 180 min/wash): 38.7%
activation at 30 µM ([1]; Ictalurus punctatus, 3 h, 30 μM, 180 min): 38.5%
activation at 60 µM ([1]; Ictalurus punctatus, 3 h, 60 μM, 180 min/wash): 31.8%
activation at 60 µM ([1]; Ictalurus punctatus, 3 h, 60 μM, 180 min): 40.6%
Percentage specific release ([4]; E:T 40:1, 10^-4 M A23187, 60 μM H7 and HA1004, 0.5 μg/ml genistein, 1:3 dilution of tissue culture supernatant, media control 20.6): 33.2%
activity at 60 µM ([4]; 4 × 10^6 NCC/ml, read-out: Percentage of control (E:T ratio) 40%): 211%
activity at 60 µM ([4]; read-out: Percentage of control (E:T ratio) 20%): 243%
influence of pretreatment on A23187 activation ([4]; pretreatment prior to A23187, di-HCl): did not appear to be additive and did not influence the final level of activation
effect on protein kinase C [2]: no effect on PKC
inhibition of cyclic nucleotide dependent kinases [3]: inhibits mostly cyclic nucleotide dependent kinases
specific protein phosphorylation after mab 5C6 [5]: did occur

[O]=[V+2] [vanadyl ion, vanadyl (IV) ion]
Na^+ /K^+ ATPase inhibition [6]: little effect

— US5593678A, “Protection of teleost fish” (University of Georgia Research Foundation, priority 1994, dated 1997)
